Reference: PubChem BioAssay (NCI)
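All cell lines were grown in 96-well plates and treated with compound for 48 hours. Abbreviation: GI50, concentration required for 50% inhibition of growth. The concentration for full growth arrest is given as TGI.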

Experiments:
Assay in all cases: DTP human tumour cell line panel, 48 h
786-0 renal = tested on: 786-0 renal
A498 renal = tested on: A498 renal
ACHN renal = tested on: ACHN renal
BT-549 breast = tested on: BT-549 breast
CAKI-1 renal = tested on: CAKI-1 renal
CCRF-CEM leukemia = tested on: CCRF-CEM leukemia
COLO 205 colon = tested on: COLO 205 colon
DU-145 prostate = tested on: DU-145 prostate
EKVX NSCLC = tested on: EKVX NSCLC
HCT-116 colon = tested on: HCT-116 colon
HCT-15 colon = tested on: HCT-15 colon
HL-60(TB) leukemia = tested on: HL-60(TB) leukemia
HOP-62 NSCLC = tested on: HOP-62 NSCLC
HS 578T breast = tested on: HS 578T breast
HT29 colon = tested on: HT29 colon
IGROV1 ovarian = tested on: IGROV1 ovarian
K-562 leukemia = tested on: K-562 leukemia
KM12 colon = tested on: KM12 colon
LOX IMVI melanoma = tested on: LOX IMVI melanoma
M14 melanoma = tested on: M14 melanoma
MALME-3M melanoma = tested on: MALME-3M melanoma
MCF7 breast = tested on: MCF7 breast
MDA-MB-231 breast = tested on: MDA-MB-231 breast
MDA-MB-435 = tested on: MDA-MB-435
MDA-N = tested on: MDA-N
MOLT-4 leukemia = tested on: MOLT-4 leukemia
NCI-H226 lung = tested on: NCI-H226 lung
NCI-H23 lung = tested on: NCI-H23 lung
NCI-H460 lung = tested on: NCI-H460 lung
NCI/ADR-RES ovarian = tested on: NCI/ADR-RES ovarian
OVCAR-3 ovarian = tested on: OVCAR-3 ovarian
OVCAR-5 ovarian = tested on: OVCAR-5 ovarian
OVCAR-8 ovarian = tested on: OVCAR-8 ovarian
PC-3 prostate = tested on: PC-3 prostate
RPMI-8226 leukemia = tested on: RPMI-8226 leukemia
RXF 393 renal = tested on: RXF 393 renal
SF-268 CNS = tested on: SF-268 CNS
SF-295 CNS = tested on: SF-295 CNS
SF-539 CNS = tested on: SF-539 CNS
SK-MEL-2 melanoma = tested on: SK-MEL-2 melanoma
SK-MEL-28 melanoma = tested on: SK-MEL-28 melanoma
SK-MEL-5 melanoma = tested on: SK-MEL-5 melanoma
SK-OV-3 ovarian = tested on: SK-OV-3 ovarian
SN12C renal = tested on: SN12C renal
SNB-19 CNS = tested on: SNB-19 CNS
SNB-75 CNS = tested on: SNB-75 CNS
SR leukemia = tested on: SR leukemia
SW-620 colon = tested on: SW-620 colon
TK-10 renal = tested on: TK-10 renal
U251 CNS = tested on: U251 CNS
UACC-257 melanoma = tested on: UACC-257 melanoma
UACC-62 melanoma = tested on: UACC-62 melanoma
UO-31 renal = tested on: UO-31 renal
A549 NSCLC = tested on: A549 NSCLC
HCC-2998 colon = tested on: HCC-2998 colon
HOP-92 NSCLC = tested on: HOP-92 NSCLC
NCI-H522 lung = tested on: NCI-H522 lung
OVCAR-4 ovarian = tested on: OVCAR-4 ovarian
T-47D breast = tested on: T-47D breast

For `S=C(c1c[nH]c2ccccc12)N1CCN(Cc2ccccc2)CC1`, the TGI (786-0 renal) was 29 µM, the TGI (A498 renal) was 37.3 µM and the TGI (ACHN renal) was > 100 µM. For the same compound, the TGI (BT-549 breast) was 32.4 µM, the TGI (CAKI-1 renal) was 56.1 µM and the TGI (CCRF-CEM leukemia) was > 100 µM. The TGI (COLO 205 colon) was 31 µM, the TGI (DU-145 prostate) was > 100 µM and the TGI (EKVX NSCLC) was 41.8 µM. For the same compound, the TGI (HCT-116 colon) was 29.1 µM, the TGI (HCT-15 colon) was 28.1 µM and the TGI (HL-60(TB) leukemia) was 44 µM. It also gave a TGI (HOP-62 NSCLC) of 33 µM, a TGI (HS 578T breast) of 34.6 µM and a TGI (HT29 colon) of 30.1 µM. For the same compound, the TGI (IGROV1 ovarian) was 26.2 µM, the TGI (K-562 leukemia) was > 100 µM and the TGI (KM12 colon) was 33.8 µM. The TGI (LOX IMVI melanoma) was 29.2 µM, the TGI (M14 melanoma) was 26.9 µM and the TGI (MALME-3M melanoma) was 33.7 µM. It also gave a TGI (MCF7 breast) of 46.7 µM, a TGI (MDA-MB-231 breast) of 32.9 µM and a TGI (MDA-MB-435) of 28.8 µM. The TGI (MDA-N) was 29.7 µM, the TGI (MOLT-4 leukemia) was 47.5 µM and the TGI (NCI-H226 lung) was 35.9 µM. The TGI (NCI-H23 lung) was 42.8 µM, the TGI (NCI-H460 lung) was 67.6 µM and the TGI (NCI/ADR-RES ovarian) was 36 µM. It also gave a TGI (OVCAR-3 ovarian) of 29.4 µM, a TGI (OVCAR-5 ovarian) of 30.5 µM and a TGI (OVCAR-8 ovarian) of 43.7 µM. For the same compound, the TGI (PC-3 prostate) was 30.8 µM, the TGI (RPMI-8226 leukemia) was 51.9 µM and the TGI (RXF 393 renal) was 30.9 µM. For the same compound, the TGI (SF-268 CNS) was 35.6 µM, the TGI (SF-295 CNS) was 29 µM and the TGI (SF-539 CNS) was 32.9 µM. For the same compound, the TGI (SK-MEL-2 melanoma) was 34.1 µM, the TGI (SK-MEL-28 melanoma) was 31 µM and the TGI (SK-MEL-5 melanoma) was 24.5 µM. The TGI (SK-OV-3 ovarian) was 51.4 µM, the TGI (SN12C renal) was 30.1 µM and the TGI (SNB-19 CNS) was 35.5 µM. The TGI (SNB-75 CNS) was 37 µM, the TGI (SR leukemia) was 47.9 µM and the TGI (SW-620 colon) was 31.6 µM. For the same compound, the TGI (TK-10 renal) was > 100 µM, the TGI (U251 CNS) was 33.6 µM and the TGI (UACC-257 melanoma) was 50.9 µM. For the same compound, the TGI (UACC-62 melanoma) was 33.7 µM and the TGI (UO-31 renal) was 21.5 µM.
In the case of `CCCC(CCC)C(=O)OCC1(CO)C/C(=C\c2ccc(F)cc2)C(=O)O1` (centres undefined), the GI50 (786-0 renal) is reported as 10.5 µM, the TGI (786-0 renal) is reported as 23.8 µM and the GI50 (A498 renal) is reported as 1.46 µM. The TGI (A498 renal) was 12.4 µM, the GI50 (A549 NSCLC) was 3.66 µM and the TGI (A549 NSCLC) was 21.5 µM. For the same compound, the GI50 (ACHN renal) was 9.32 µM, the TGI (ACHN renal) was 23.4 µM and the GI50 (BT-549 breast) was 7.25 µM. For the same compound, the TGI (BT-549 breast) was 22.6 µM, the GI50 (CAKI-1 renal) was 7.28 µM and the TGI (CAKI-1 renal) was 27.4 µM. For the same compound, the GI50 (CCRF-CEM leukemia) was 0.0233 µM, the TGI (CCRF-CEM leukemia) was 0.107 µM and the GI50 (COLO 205 colon) was 0.545 µM. It also gave a TGI (COLO 205 colon) of 8.74 µM, a GI50 (DU-145 prostate) of 12.7 µM and a TGI (DU-145 prostate) of 25.7 µM. For the same compound, the GI50 (EKVX NSCLC) was 7.67 µM, the TGI (EKVX NSCLC) was 34.3 µM and the GI50 (HCC-2998 colon) was 6.73 µM. The TGI (HCC-2998 colon) was 19.8 µM, the GI50 (HCT-116 colon) was 13.6 µM and the TGI (HCT-116 colon) was 27.1 µM. The GI50 (HCT-15 colon) was 12.5 µM, the TGI (HCT-15 colon) was 26.2 µM and the GI50 (HL-60(TB) leukemia) was 0.907 µM. It also gave a TGI (HL-60(TB) leukemia) of 8.36 µM, a GI50 (HOP-62 NSCLC) of 4.11 µM and a TGI (HOP-62 NSCLC) of 17 µM. For the same compound, the GI50 (HOP-92 NSCLC) was 0.487 µM, the TGI (HOP-92 NSCLC) was 12.5 µM and the GI50 (HS 578T breast) was 14.3 µM. The TGI (HS 578T breast) was 43.5 µM, the GI50 (HT29 colon) was 13.6 µM and the TGI (HT29 colon) was 27.3 µM. For the same compound, the GI50 (IGROV1 ovarian) was 15.5 µM, the TGI (IGROV1 ovarian) was 32.7 µM and the GI50 (K-562 leukemia) was 0.374 µM. For the same compound, the TGI (K-562 leukemia) was 18 µM, the GI50 (KM12 colon) was 13.9 µM and the TGI (KM12 colon) was 27.5 µM. The GI50 (LOX IMVI melanoma) was 11.2 µM, the TGI (LOX IMVI melanoma) was 24.5 µM and the GI50 (M14 melanoma) was 8.45 µM. It also gave a TGI (M14 melanoma) of 24.8 µM, a GI50 (MALME-3M melanoma) of 12.1 µM and a TGI (MALME-3M melanoma) of 27.2 µM. The GI50 (MCF7 breast) was 15.5 µM, the TGI (MCF7 breast) was 31.4 µM and the GI50 (MDA-MB-231 breast) was 6.98 µM. For the same compound, the TGI (MDA-MB-231 breast) was 23.9 µM, the GI50 (MDA-MB-435) was 2.43 µM and the TGI (MDA-MB-435) was 20.9 µM. For the same compound, the GI50 (MOLT-4 leukemia) was 3.54 µM, the TGI (MOLT-4 leukemia) was 21.4 µM and the GI50 (NCI-H226 lung) was 11.7 µM. It also gave a TGI (NCI-H226 lung) of 32.3 µM, a GI50 (NCI-H23 lung) of 12.4 µM and a TGI (NCI-H23 lung) of 26.7 µM. The GI50 (NCI-H460 lung) was 1.94 µM, the TGI (NCI-H460 lung) was 19.6 µM and the GI50 (NCI-H522 lung) was 14.5 µM. The TGI (NCI-H522 lung) was 30.4 µM, the GI50 (NCI/ADR-RES ovarian) was 13.9 µM and the TGI (NCI/ADR-RES ovarian) was 33.4 µM. The GI50 (OVCAR-3 ovarian) was 17.1 µM, the TGI (OVCAR-3 ovarian) was 31.2 µM and the GI50 (OVCAR-4 ovarian) was 13.9 µM. It also gave a TGI (OVCAR-4 ovarian) of 28.4 µM, a GI50 (OVCAR-5 ovarian) of 16.6 µM and a TGI (OVCAR-5 ovarian) of 31.4 µM. For the same compound, the GI50 (OVCAR-8 ovarian) was 17.9 µM, the TGI (OVCAR-8 ovarian) was 37 µM and the GI50 (PC-3 prostate) was 10.4 µM. The TGI (PC-3 prostate) was 25 µM, the GI50 (RPMI-8226 leukemia) was 0.845 µM and the TGI (RPMI-8226 leukemia) was 7.15 µM. For the same compound, the GI50 (RXF 393 renal) was 15.6 µM, the TGI (RXF 393 renal) was 36.6 µM and the GI50 (SF-268 CNS) was 13.2 µM. It also gave a TGI (SF-268 CNS) of 26.7 µM, a GI50 (SF-295 CNS) of 1.99 µM and a TGI (SF-295 CNS) of 17.4 µM. It also gave a GI50 (SF-539 CNS) of 12 µM, a TGI (SF-539 CNS) of 24.4 µM and a GI50 (SK-MEL-2 melanoma) of 17.2 µM. For the same compound, the TGI (SK-MEL-2 melanoma) was 34.1 µM, the GI50 (SK-MEL-28 melanoma) was 14.7 µM and the TGI (SK-MEL-28 melanoma) was 28 µM. The GI50 (SK-MEL-5 melanoma) was 0.829 µM, the TGI (SK-MEL-5 melanoma) was 17 µM and the GI50 (SK-OV-3 ovarian) was 19.5 µM. It also gave a TGI (SK-OV-3 ovarian) of 33.9 µM, a GI50 (SN12C renal) of 12.4 µM and a TGI (SN12C renal) of 26.4 µM. It also gave a GI50 (SNB-19 CNS) of 18.2 µM, a TGI (SNB-19 CNS) of 32.2 µM and a GI50 (SNB-75 CNS) of 7.99 µM. It also gave a TGI (SNB-75 CNS) of 22.8 µM, a GI50 (SR leukemia) of 6.55 µM and a TGI (SR leukemia) of 25.4 µM. For the same compound, the GI50 (SW-620 colon) was 6.93 µM, the TGI (SW-620 colon) was 20.7 µM and the GI50 (T-47D breast) was 13.2 µM. It also gave a TGI (T-47D breast) of 30.1 µM, a GI50 (TK-10 renal) of 6.06 µM and a TGI (TK-10 renal) of 23.6 µM. For the same compound, the GI50 (U251 CNS) was 8.07 µM, the TGI (U251 CNS) was 23.4 µM and the GI50 (UACC-257 melanoma) was 14.7 µM. It also gave a TGI (UACC-257 melanoma) of 28.7 µM, a GI50 (UACC-62 melanoma) of 8.16 µM and a TGI (UACC-62 melanoma) of 23.8 µM. It also gave a GI50 (UO-31 renal) of 8.35 µM and a TGI (UO-31 renal) of 24.4 µM.
